Test results: patent publication US11993574B2, “Pyrazole and imidazole compounds for inhibition of IL-17 and RORgamma” (REATA PHARMACEUTICALS, INC., priority 2018, dated 2024)

Columns and labels:
Type in all cases: cell-based
IL-17A = assay: IL-17 release from differentiated primary human T-cells (IL-17A HTRF assay); conditions: primary human CD4+ T cells differentiated into Th17 cells, 45-hour incubation, IL-17A in supernatant; read-out: hIL17 IC50
Protocol: C. IL-17 Release from Differentiated Primary Human T-Cells and Cell Viability
Primary human cryopreserved CD4+ T Cells (Lonza) were thawed according to the manufacturer's recommendations and plated either in Lymphocyte Growth Medium-3 (LGM-3) or X-VIVO 20 media (Lonza) in 96-well tissue culture plates at a density of ˜2×10^5 cells per well, and allowed to recover for approximately 4 hours at 37° C. with 5% CO2 in a humidified atmosphere. After the recovery step, DMSO (vehicle) or test compound at doses ranging from 2 to 500 nM or 4 to 1000 nM in a three-fold dilution series was added to the cells. Three replicate wells were tested for each treatment condition. Final DMSO concentration in each well was 0.1%. Immediately after treatment, CD4+ T cells were activated by adding Dynabeads Human T-Activator CD3/CD28 (Life Technologies; bead-to-cell ratio of 1:2.5) and differentiated into Th17 cells by adding a mixture of the following cytokines: transforming growth factor-β (TGF-β, 5 ng/mL), IL-6 (20 ng/mL), IL-23 (20 ng/mL), and IL-1β (10 ng/mL). Undifferentiated control cells received only cytokine IL-2 (50 ng/mL). All human recombinant cytokines were purchased from R&D Systems. Following a 45-hour incubation at 37° C. with 5% CO2 in a humidified atmosphere, the plates were centrifuged for 3 minutes at 250×g, and half of the supernatant was transferred to anew plate to be used in the IL-17A assay (see below). Cell viability was assessed in the original plate using the CyQuant Direct Assay (Life Technologies). CyQuant reagent (an amount equal to 10% of remaining media volume) was added to the wells, and the plates were then incubated at 37° C. for 75 min. Fluorescence was read on a SpectraMax M2e spectrophotometer at 480 nm (excitation) and 535 nm (emission) wavelengths. CyQuant values from test compound samples were normalized to those from DMSO-treated samples. The concentration of IL-17A in the supernatant was measured using the Homogeneous Time-Resolved Fluorescence (HTRF) assay (Cisbio Bioassays) according to the manufacturer's protocol. The assay was performed at room temperature in low volume, solid white 384-well plates (Greiner Bio-One). Samples and standards (serially-diluted human recombinant IL-17A (0 to 5,000 pg/mL concentration range; Cisbio Bioassays) were incubated with the anti-human IL-17A antibody conjugates (the HTRF donor and acceptor pair) for 16 hours and fluorescence was measured using a Pherastar FS microplate reader (BMG Labtech) in the HTRF mode (excitation at 337 nm and emission at 665 nm and 620 nm). IL-17A levels were assessed in duplicate aliquots of supernatant from each well resulting in a total of six readings per test condition. The 665 nm/620 nm signal ratio was calculated and the concentration of IL-17A in each sample was determined by interpolation from the standard curve. The amount of IL-17A from test compound treated samples were normalized to that of the vehicle-treated samples, set to 100%. Data were analyzed using GraphPad Prism (GraphPad Software, La Jolla California USA). Concentrations of test compound were transformed by taking the logarithm of each concentration used. The IC50 values for compound-mediated reduction in IL-17A levels and cell viability were determined by non-linear regression analysis using the log(inhibitor) vs. normalized response with variable slope equation. Inhibition that is closely correlated with reduced viability is considered to be non-specific.

[1] = test system: Nrf2 transcription factor; assay: AREc32 luciferase reporter assay; conditions: Homo sapiens; AREc32 cells, 19 hours; concentration required to increase GST ARE luciferase reporter activity by 2-fold; read-out: NRF2 ARE 2-Fold (EC2×)
Text: A. AREc32 Luciferase Reporter Assay
The AREc32 luciferase reporter assay allows for quantitative assessment of the endogenous activity of the Nrt2 transcription factor in cultured mammalian cells. AREc32 cells are derived from MCF-7 human breast carcinoma cells that were stably transfected with a reporter construct that contains the firefly luciferase gene located downstream of eight copies of the rat GSTA2 antioxidant response element (ARE) sequence (Wang et al., 2006; Concept Life Sciences Integrated Discovery and Development Services Ltd (CLSIDDS)). Active Nrf2 binds to the ARE sequences and increases expression of the firefly luciferase gene. To assess the Nrf2-activating potential of the test compounds, AREc32 cells were plated in black […] plates at a density of 20,000 cells per well in triplicate in DMEM+10% FBS+0.8 mg/mL Geneticin and incubated at 37° C. with 5% CO2 in a humidified atmosphere. The next day, cells were treated with DMSO (vehicle) or test compound (concentration ranges of 0.4-200 nM or 3.9-2000 nM) for 19 hours. Luciferase activity was determined using the ONE-Glo Luciferase assay (Promega). The luminescence signal was measured on a BMG Pherastar microplate reader. The mean luminescence value from test compound-treated wells was normalized to that from DMSO-treated wells and was represented as fold-induction. Data were analyzed using GraphPad Prism version 6.00 for Windows, GraphPad Software, La Jolla Calif. USA. A non-linear regression curve with log (agonist) vs. response using a variable slope was used to fit the data. Where applicable, a maximum threshold value of 50-fold over DMSO was set. EC2× values were interpolated from the curve. EC2× corresponds to the concentration of test compound required to increase GST ARE Luciferase reporter activity by 2-fold.

[2] = target: T1, Human RAR-related Orphan Receptor Gamma (RORγ) (Homo sapiens, UniProt P51449); assay: RORγ assay (GAL4-RORγ hybrid luciferase reporter, Indigo Biosciences); conditions: inverse-agonist activity, GAL4-RORγ reporter cells, 23 hours
T1 sequence (P51449 269-508 limits assumed): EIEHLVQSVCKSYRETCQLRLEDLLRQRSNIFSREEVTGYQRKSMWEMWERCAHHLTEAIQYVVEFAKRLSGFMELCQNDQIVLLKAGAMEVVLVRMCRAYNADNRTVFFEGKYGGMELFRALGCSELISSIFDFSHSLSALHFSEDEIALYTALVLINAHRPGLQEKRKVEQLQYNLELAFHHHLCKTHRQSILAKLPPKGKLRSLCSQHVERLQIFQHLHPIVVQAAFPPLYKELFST
Text: B. RORγ Assay and Cell Viability
The RORγ assay system was purchased from Indigo Biosciences. This nuclear receptor assay utilizes a human cell line that has been engineered to express a hybrid form of the Human RAR-related Orphan Receptor Gamma (RORγ) at high levels. The N-terminal DNA binding domain (DBD) of the native RORγ receptor was substituted with the yeast GAL4-DBD to generate the GAL4-RORγ hybrid nuclear receptor. The reporter cell line is transfected with a plasmid that encodes the beetle luciferase gene under the control of the GAL4 upstream activating sequence (UAS). GAL4 binds to the UAS and increases transcription of downstream target genes. The GAL4-RORγ hybrid is constitutively active; therefore, the principle application of this reporter assay system is to screen test compounds to quantify inverse-agonist activities against human RORγ. Because the ligand binding domain (LBD) of RORγ is identical to the LBD of RORγt, this assay is an accurate surrogate for evaluating activity of experimental ligands against RORγt. To assess the RORγ inverse-agonist activity of the test compounds, reporter cells were plated in white 96-well plates in triplicate and were treated with DMSO (vehicle) or test compound (concentration ranges of 7.8-2000 nM) at 37° C. with 5% CO2 in a humidified atmosphere for 23 hours. After this incubation, luciferin was added to the wells and luciferase activity was determined by measuring the luminescence signal using a BMG Pherastar microplate reader. Viability was determined using the Live Cell Multiplex Assay (Indigo Biosciences). Values from test compound samples were normalized to those from DMSO-treated samples. Data were analyzed using GraphPad Prism version 6.00 for Windows (GraphPad Software, La Jolla Calif. USA). A non-linear regression analysis with log (inhibitor) vs. normalized response using a variable slope was applied to fit the data and determine the IC50 values for inhibition of RORγ and cell viability. Inhibition that is closely correlated with reduced viability is considered to be non-specific.

IC50 (IL-17A) [nM] | IC50 [2] [nM] | Structure (SMILES) | EC (2-fold) [1] [µM]
65 | 174 | C[C@H]1C(=O)C(C#N)=C[C@@]2(C)c3nn(C4CCCCC4)c(-c4ccccc4)c3CC[C@H]12 [T1] | 1.45
83 | 98 | C[C@H]1C(=O)C(C#N)=C[C@@]2(C)c3c(c(-c4ccccc4)nn3C3CCCCC3)CC[C@H]12 [T2] | 0.66
92 | 276 | C[C@H]1C(=O)C(C#N)=C[C@@]2(C)c3c(c(-c4ccccc4)nn3CC(F)(F)F)CC[C@H]12 [T3] | 1.46
223 | 140 | C[C@H]1C(=O)C(C#N)=C[C@@]2(C)c3nn(Cc4ccccc4)c(-c4ccccc4)c3CC[C@H]12 [T4] | 0.914
119 | 136 | C[C@H]1C(=O)C(C#N)=C[C@@]2(C)c3c(c(-c4ccccc4)nn3Cc3ccccc3)CC[C@H]12 [T5] | 0.587
35 | 91 | C[C@H]1C(=O)C(C#N)=C[C@@]2(C)c3c(c(-c4ccccc4)nn3-c3ccc(C(F)(F)F)cc3)CC[C@H]12 [T6] | 0.242
170 | 158 | C[C@H]1C(=O)C(C#N)=C[C@@]2(C)c3c(c(-c4ccccc4)nn3-c3ccncc3)CC[C@H]12 [T7] | 0.265
73 | 81 | C[C@H]1C(=O)C(C#N)=C[C@@]2(C)c3c(c(-c4ccccc4)nn3-c3ccnc4ccccc34)CC[C@H]12 [T8] | 0.426
127 | 63 | C[C@H]1C(=O)C(C#N)=C[C@@]2(C)c3c(c(-c4ccccc4)nn3-c3ccccc3F)CC[C@H]12 [T9] | 0.122
78 | 88 | C[C@H]1C(=O)C(C#N)=C[C@@]2(C)c3c(c(-c4ccccc4)nn3-c3ccc(Cl)c(Cl)c3)CC[C@H]12 [T10] | 0.26
111 | 73 | C[C@H]1C(=O)C(C#N)=C[C@@]2(C)c3c(c(-c4ccccc4)nn3-c3ccccc3)CC[C@H]12 [T11] | 0.107
76 | 55 | Cc1ccc(-n2nc(-c3ccccc3)c3c2[C@]2(C)C=C(C#N)C(=O)[C@H](C)[C@H]2CC3)cc1 [T12] | 0.135
96 | 129 | C[C@H]1C(=O)C(C#N)=C[C@@]2(C)c3c(c(-c4ccccc4)nn3-c3ccc(Cl)cc3)CC[C@H]12 [T13] | 0.274
57 | 60 | COc1ccc(-n2nc(-c3ccccc3)c3c2[C@]2(C)C=C(C#N)C(=O)[C@H](C)[C@H]2CC3)cc1 [T14] | 0.147
94 | 77 | Cc1ccccc1-n1nc(-c2ccccc2)c2c1[C@]1(C)C=C(C#N)C(=O)[C@H](C)[C@H]1CC2 [T17] | 0.105
182 | 114 | Cc1ccccc1-n1nc2c(c1-c1ccccc1)CC[C@@H]1[C@@H](C)C(=O)C(C#N)=C[C@@]21C [T18] | 0.741
32 | 85 | C[C@H]1C(=O)C(C#N)=C[C@@]2(C)c3c(c(-c4ccccc4)nn3-c3ccc(OC(F)(F)F)cc3)CC[C@H]12 [T19] | 0.247
94 | 115 | C[C@H]1C(=O)C(C#N)=C[C@@]2(C)c3nn(-c4ccc(OC(F)(F)F)cc4)c(-c4ccccc4)c3CC[C@H]12 [T20] | 0.927
– | 470 | C[C@H]1C(=O)C(C#N)=C[C@@]2(C)c3c(c(-c4ccccc4)nn3C3CCS(=O)(=O)C3)CC[C@H]12 (some centres unmarked) [T29] | 0.837
– | 143 | C[C@H]1C(=O)C(C#N)=C[C@@]2(C)c3nn(C4CCS(=O)(=O)C4)c(-c4ccccc4)c3CC[C@H]12 (some centres unmarked) [T30] | 0.462
– | 89 | C[C@H]1C(=O)C(C#N)=C[C@@]2(C)c3c(c(-c4ccccc4)nn3-c3cccc(Br)c3)CC[C@H]12 [T33] | 0.29
– | > 2000 | C[C@H]1C(=O)C(C#N)=C[C@@]2(C)c3c(c(-c4ccccc4)nn3-c3ccc(C(=O)O)cc3)CC[C@H]12 [T52] | > 2
– | 284 | C[C@H]1C(=O)C(C#N)=C[C@@]2(C)c3c(c(-c4ccncn4)nn3-c3ccc(C4CC4)cn3)CC[C@H]12 [T62] | 0.691
– | 768 | C[C@H]1C(=O)C(C#N)=C[C@@]2(C)c3nc(-c4ccccc4)n(-c4nnn(C)n4)c3CC[C@H]12 [T111] | 0.59
– | 264 | C[C@H]1C(=O)C(C#N)=C[C@@]2(C)c3nc(-c4ccncc4)n(-c4ccccc4)c3CC[C@H]12 [T112] | 0.563
